Measured values as given in patent US8673289B2, “Attenuated uracil auxotroph of an apicomplexan and use thereof” (priority 2007, dated 2014).

Experiments:
[1] = test system: wild-type T. gondii; assay: labeling of parasites with [3H]pyrimidines (pyrimidine salvage); format: cell-based, Toxoplasma gondii; conditions: parasites grown in host cells
Method: (§1) Initial experiments primarily involved an enzymatic analysis of drug resistant mutants and the incorporation of various pyrimidine analogs into T. gondii RNA and DNA as an indication of pyrimidine salvage when parasites were grown in either normal host or mutant host cells. All biochemical communications between the parasite and host cells cross the vacuolar membrane which is now known to contain “pores” that permit the passage of nucleobases ranging in molecular mass from 112 daltons up to 244 daltons. The size of the pores is estimated to be approximately 1500 daltons. A T. gondii mutant resistant to 5-fluorodeoxyuridine (FUDR-1) had lost uracil phosphoribosyltransferase (UPRT), an enzyme which is absent in normal host cells (Pfefferkorn (1978) Expt. Parasitol. 44:26-35). […] FUDR-1 mutant parasites were not labeled with [^3H]deoxyuridine. […] FUDR-1 mutant parasites were not labeled with [^3H]uridine. […] FUDR-1 (UPRT knock-out) parasites were not labeled with [^3H]uracil.
Similarly, since uracil only labels the parasite, due to the parasite UPRT, which is absent in the host, the pyrimidine pools of the parasite are also unavailable to the host. Thus, there is no detectable pyrimidine traffic detected between the parasite and host.

[2] = test system: cps1-1 and cps2-1; assay: pyrimidine rescue of cps1-1 and cps2-1 replication and plaque formation; format: cell-based, Toxoplasma gondii; conditions: for rescue of replication (doublings) of cps1-1 and cps2-1: 36-hour replication assay, HFF; for rescue of plaque formation of cps1-1 and cps2-1: plaque assay
Method: No pyrimidine compound at less than 25 μM could rescue plaque formation of cps1-1 or cps2-1. […] Uridine was quite poor at rescue of plaque formation in cps1-1 and cps2-1.
A more detailed growth response to pyrimidine, measured as parasite replications (doublings) was performed for cps1-1 and cps2-1 and compared to the results previously obtained for […]. […] Uridine rescue was poor, with a slow restoration of growth at very high amounts, >400 μM. Deoxyuridine rescue was significant, but again, full growth rate was not restored at any concentration of deoxyuridine. Rescue with uracil was robust, but only in a limited range of concentration. Full restoration of growth rate in cps1-1 and cps2-1 was possible only with uracil added between 200 and 400 μM. […] This phenotype can only be observed in T. gondii pyrimidine auxotroph mutants, not in wild-type parasites with intact de novo pyrimidine synthesis pathways.
The pyrimidine growth dependence of mutant cps1-1 on the pyrimidine salvage pathway was further documented in thymidine interference experiments. Mutant cps1-1 plaques well in 250 μM uracil or deoxyuridine, but not in 1000 μM thymidine. Since thymidine at 1000 μM is known to inhibit approximately 90% of the parasite nucleoside phosphorylase activity specific for cleavage of deoxyuridine (Iltzsch, (1993) J. Euk. Micro. 40:24-28), growth of cps1-1 was tested in combinations of 1000 μM thymidine and 250 μM uracil or 250 μM deoxyuridine. All pyrimidine salvage in T. gondii must pass through uracil and UPRT conversion of uracil to UMP. In contrast, thymidine has no effect on UPRT activity. Thus, if growth of cps1-1 were dependent on deoxyuridine supplementation then replication in this condition may be inhibited by co-supplementing with 1000 μM thymidine. […] Thus, when cps1-1 is grown in deoxyuridine the parasite strictly requires nucleoside phosphorylase activity to cleave deoxyuridine for growth. […] Thus, cps1-1 and cps2-1 rely strictly on pyrimidine salvage enzymes for growth and further, the HFF host cell in vitro cannot supply sufficient pyrimidines for growth of cps1-1 or cps2-1. […] Such potential inhibitors can only be identified using a pyrimidine auxotroph such as provided in the instant invention.
To assess reversion, 10^6 to 10^7 cps1-1 or cps2-1 parasites were periodically inoculated into HFF flasks supplemented with 5 μM uridine. This concentration of uridine is sufficient to rescue the parent strains (cps1 and cps2) of cps1-1 and cps2-1.

[3] = test system: FUDR-1 mutant parasites; assay: labeling of FUDR-1 (UPRT knock-out) parasites with [3H]pyrimidines; format: cell-based, Toxoplasma gondii
Method: as §1

[4] = test system: cps1 and cps2 mutants; assay: pyrimidine dependence of cps1 and cps2 replication and plaque formation; format: cell-based, Toxoplasma gondii; conditions: for rescue of growth rate / replication of cps1 and cps2: relatively low (thymine, thymidine: moderate) concentrations in medium; for rescue of replication of cps1 and cps2: very high concentrations
Excerpt: However, all of these mutants are somewhat “leaky” in that there was not an absolute growth (replication) dependence on uracil addition to the growth medium for replication. Each of these mutants grows at a moderate (½ of normal) growth rate for the first 2 days following infection of a host cell producing vacuoles that contained 16 to 32 parasites by 3 days post infection. In contrast, RH parasites are lysed out of their primary vacuoles at this time (3 days, >64 parasites). However, the cps mutants slow after 3 days and many parasites never (about ⅓) break out of their primary vacuole. If the primary vacuole breaks, a few parasites can be detected at the site of infection but the infection site always involves a small zone of infection that never forms a visible plaque in a standard 7 day plaque assay. To quantitate growth of these mutants, HFF flasks were inoculated with […] or cps2 parasites (about a multiplicity of infection (MOI) of 1 parasite per 20 HFF cells). After 2 hours of attachment and invasion (all of these mutants have normal attachment and invasion phenotypes as scored by counting percent entered parasites into host cells as a function of time post-inoculation), different concentrations of different pyrimidine compound was added to parallel infected HFF flasks. As a function of time post pyrimidine addition (t=0 hour) the number of parasites per vacuole was scored for 50 vacuoles as described by Fox et al. ((1999) supra). The number of parasite doublings was calculated based on 1 parasite entering each primary vacuole. Thus, 1 doubling=2 parasites per vacuole, 3 doublings=8 parasites per vacuole, and 5 doublings=32 parasites per vacuole. The pyrimidine dependence of cps1 and cps2 replication (doublings of parasites in the vacuole) was plotted graphically. […] The response to thymine and thymidine was additionally informative about the cause of the growth defect in cps1 and cps2. […] This is believed to be caused by the putative defect in the cps1 and cps2 mutants which is a reduced “pool” size of UMP. If UMP pools (ultimately used for RNA and DNA synthesis) are lowered it follows that a resulting decrease in TMP pools is expected since UMP is the precursor of TMP in T. gondii and all other apicomplexan parasites which normally lack TK activity. However, since cps1 and cps2 now express a TK activity carried into the parasite by the p53KOX3-1R plasmid, exemplified by sensitivity of these mutants to ganciclovir (specific to HSV TK), feeding parasites either thymine or thymidine is expected to increase TMP pools. Thus, it appears that moderate levels of thymine or thymidine partially rescue growth of cps1 and cps2 by restoring TMP pools. […] Since the parasite has no mechanism to convert TMP back to UMP there is still a defect in the UMP pool in cps1 and cps2 even with added thymine or thymidine and rescue is never complete. The ability of cps1 and cps2 mutants to form plaques on HFF monolayers in the standard 7 day assay paralleled the pyrimidine dependence of parasite replication in vacuoles.
The cps1 and cps2 mutants were inoculated intraperitoneally (i.p.) into balb/c mice to measure parasite virulence compared to virulent RH parasites. Both mutant cps1 and cps2 had equal virulence as RH parasites in balb/c mice (Jackson Labs), killing all mice within 10 days of i.p. inoculation (group size was four mice per parasite strain). Only 100 parasites (˜50 PFU) of each parasite strain was needed to kill all mice in each group. This pattern of virulence can be understood by re-examining the pyrimidine dependence of cps1 and cps2 growth. Uridine is believed to be the pyrimidine responsible for virulence of cps1 and cps2 in mice. Only 5 μM uridine completely rescues normal plaque size of cps1 and cps2 in vitro. Plasma concentrations of uridine in mice are approximately 5 to 10 μM.

[5] = test system: mutants cps1, cps2, cps3, cps4; assay: plaque formation in ganciclovir, cps mutants; format: cell-based, Toxoplasma gondii
[6] = test system: cps1-1 and cps2-1; assay: drug sensitivity of cps1-1 and cps2-1 in replication and plaque assays; format: cell-based, Toxoplasma gondii; conditions: 10 μM
Excerpt: It is believed that the single recombination into the CPSII locus only partially disrupted expression of CPSII activity in cps1 and cps2. […] Cps1 and cps2 were thus utilized as the parent strain background in which to select a more highly attenuated pyrimidine auxotroph mutant. Both the cps1 and cps2 mutants express a TK allele which was inserted into the CPSII locus. […] Then, approximately 1-2×10^5 cps1 or cps2 parasites was inoculated into a 25 cm^2 HFF flask and selected negatively in the presence of 10 μM ganciclovir plus 200 μM uracil. This is 20 times the dose of ganciclovir necessary to completely block plaque formation of these mutants. […] The parasites which were growing in ganciclovir plus uracil were subcloned in ganciclovir and uracil (same conditions) and individual clones, cps1-1 and cps2-1, were identified from each parent, respectively, for further analysis. The cps1-1 and cps2-1 subclones were first tested for their sensitivity to pyrimethamine. The theory of negative selective in only ganciclovir is that a mutant that disrupts expression of the TK allele should simultaneously acquire sensitivity to pyrimethamine due to loss of the expression of the fused trifunctional DHFR-TK-TS transgene(s) inserted into the CPSII locus of cps1 and cps2.

[7] = test system: T. gondii carrying a single allele of TK from pDHFRm2m3-TK-TS; assay: plaque formation in ganciclovir, TK-transfected parasites; format: cell-based, Toxoplasma gondii
Excerpt: A modified hit and run mutagenesis was devised for knocking out the T. gondii gene encoding CPSII. First, a new plasmid vector was developed for positive and negative selection analogous to the plasmid described by Fox, et al. ((1999) Mol. Biochem. Parasitol. 98:93-103), except using the herpes simplex virus type I thymidine kinase (TK) gene instead of bacterial cytosine deaminase in the linker region of DHFR-TS. To create this plasmid two primers, a forward primer GGGAGATCTATGGCTTCGTACCCCGGCCATCAA (SEQ ID NO:10) and a reverse primer GGGGATCCTCAGTTAGCCTCCCCCATCTCCCG (SEQ ID NO:11) were used to PCR amplify, via standard conditions, the ganciclovir hypersensitive TK75 HSVTK allele (Black, et al. (1996) Proc. Natl Acad. Sci. USA 93:3525-3529). The forward primer contains a BglII site and the reverse primer a BamHI site. Following BamHI and BglII digestion of the ˜1130 bp PCR product, the TK allele was ligated into plasmid pDHFRm2m3-FLG-TS which was digested at the unique BamHI site in the FLAG epitope linker. The TK PCR primers were designed to join with pDHFRm2m3-FLG-TS to produce an in-frame insertion of TK between DHFR and TS in a plasmid called pDHFRm2m3-TK-TS, similar to previously described pDHFRm2m3-CD-TS plasmid (Fox, et al. (1999) supra). The trifunctional enzyme plasmid with TK was tested to confirm function of all three enzymes. […]

[8] = test system: parasite nucleoside phosphorylase activity specific for cleavage of deoxyuridine; conditions: thymidine at 1000 μM; cited from earlier work
[9] = test system: mammalian CPSII; conditions: hamster CPSII; cited from earlier work

Molecule: O=c1ccn([C@H]2C[C@H](O)[C@@H](CO)O2)c(=O)[nH]1 [deoxyuridine]
- incorporation of [3H]-labeled pyrimidine into wild-type parasites [1]: incorporated into wild-type T. gondii
- plaque formation of cps1-1 ([2]; 250 μM supplement): plaques well
- rescue of replication (doublings) of cps1-1 and cps2-1 [2]: significant
- rescue of plaque formation of cps1-1 and cps2-1 [2]: significant growth rescue
- labeling of FUDR-1 mutant parasites with [3H]pyrimidine [3]: not labeled
- rescue of growth rate / replication of cps1 and cps2 [4]: completely rescued

Molecule: Nc1nc(O)c2ncn(COC(CO)CO)c2n1 [ganciclovir]
- ganciclovir concentration at which ability to form plaques is lost [5]: 0.5 µM
- sensitivity of cps1-1 and cps2-1 to ganciclovir [6]: loss of sensitivity
- ganciclovir concentration in which parasites do not form plaques [7]: 0.5 μm

Molecule: Cc1cn([C@H]2C[C@H](O)[C@@H](CO)O2)c(=O)[nH]c1=O [thymidine]
- incorporation of [3H]-labeled pyrimidine into wild-type parasites [1]: did not incorporate
- plaque formation of cps1-1 ([2]; 1000 μM thymidine): not
- effect on deoxyuridine-dependent growth of cps1-1 ([2]; 1000 μM thymidine plus 250 μM deoxyuridine): did block
- effect on UPRT or uracil dependent growth of cps1-1 ([2]; 1000 μM thymidine plus 250 μM uracil): did not affect
- rescue of replication (doublings) of cps1-1 and cps2-1 [2]: remained as a single non-replicated parasite
- rescue of plaque formation of cps1-1 and cps2-1 [2]: no response was detected
- inhibition of parasite nucleoside phosphorylase activity [8]: approximately 90%
- rescue of growth rate / replication of cps1 and cps2 [4]: partially rescued
- rescue of replication of cps1 and cps2 [4]: did not rescue replication

Molecule: Cc1c[nH]c(=O)[nH]c1=O [thymine]
- incorporation of [3H]-labeled pyrimidine into wild-type parasites [1]: did not incorporate
- rescue of replication (doublings) of cps1-1 and cps2-1 [2]: remained as a single non-replicated parasite
- rescue of plaque formation of cps1-1 and cps2-1 [2]: no response was detected
- rescue of growth rate / replication of cps1 and cps2 [4]: partially rescued
- rescue of replication of cps1 and cps2 [4]: did not rescue replication

Molecule: O=c1ccn([C@@H]2O[C@H](CO)[C@@H](O)[C@H]2O)c(=O)[nH]1 [uridine]
- incorporation of [3H]-labeled pyrimidine into wild-type parasites [1]: incorporated into wild-type parasites
- support of growth of cps1-1 or cps2-1 ([2]; 5 μM uridine): insufficient to support any growth
- rescue of replication (doublings) of cps1-1 and cps2-1 [2]: poor
- uridine concentration giving slow restoration of growth ([2]; cps1-1, cps2-1): > 400 µM
- rescue of plaque formation of cps1-1 and cps2-1 [2]: quite poor
- labeling of FUDR-1 mutant parasites with [3H]pyrimidine [3]: not labeled
- uridine concentration that rescues cps1 and cps2 (normal plaque size) ([4]; in vitro): 5 µM
- rescue of growth rate / replication of cps1 and cps2 [4]: completely rescued

Molecule: H. a. S1345A: hamster CPSII with regulatory domain serine to alanine mutation
- Effect on CPS or CPSII [9]: Reduces PRPP activation

Molecule: H. a. T456A: mammalian (hamster) CPSII with MAPK site mutation T456A
- Effect on CPS or CPSII [9]: Abolishes MAPK activation
